According to patent US8748453B2, “Substituted heterocyclic compounds as kinases inhibitors and methods of use thereof” (Medolution Limited, priority 2009, dated 2014):

Columns and labels:
[1] = Pharmacokinetics after IV administration to Sprague-Dawley rats; settings: rat, in vivo; for half-life: read-out: mean elimination half-life (T1/2) (converted); for clearance: read-out: mean Clearance (CL) (converted)
[2] = molecular target: T1, EGFR (Homo sapiens, UniProt P00533); assay: Radiometric kinase assay, EGFR; format: biochemical; settings: read-out: potency (IC50) over EGFR assay
T1 construct: Recombinant catalytic domain, amino acids 668-1210, GST tagged, purified from insect cells; GST; host or cells: insect cells
T1 sequence (P00533 668-1210): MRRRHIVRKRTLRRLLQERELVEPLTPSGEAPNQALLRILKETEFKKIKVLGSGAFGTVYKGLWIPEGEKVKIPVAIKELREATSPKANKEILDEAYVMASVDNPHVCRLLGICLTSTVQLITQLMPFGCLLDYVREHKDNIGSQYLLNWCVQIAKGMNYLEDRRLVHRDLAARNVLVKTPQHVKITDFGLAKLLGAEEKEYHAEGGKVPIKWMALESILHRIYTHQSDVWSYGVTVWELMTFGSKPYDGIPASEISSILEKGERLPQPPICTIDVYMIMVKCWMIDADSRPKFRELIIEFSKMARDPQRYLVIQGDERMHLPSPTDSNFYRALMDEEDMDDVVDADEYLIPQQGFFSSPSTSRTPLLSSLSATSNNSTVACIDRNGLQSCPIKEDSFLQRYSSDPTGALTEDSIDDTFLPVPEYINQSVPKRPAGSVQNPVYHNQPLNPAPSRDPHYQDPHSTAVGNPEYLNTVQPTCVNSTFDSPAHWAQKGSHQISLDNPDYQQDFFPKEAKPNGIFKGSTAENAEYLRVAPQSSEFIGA
Description: (§1) Base Reaction buffer: 20 mM Hepes (pH 7.5), 10 mM MgCl2, 1 mM EGTA, 0.02% Brij35, 0.02 mg/ml BSA, 0.1 mM Na3VO4, 2 mM DTT, 1% DMSO. *Required cofactors are added individually to each kinase reaction
(§2) Prepare indicated substrate in freshly prepared Base Reaction Buffer • Deliver any required cofactors to the substrate solution above • Deliver indicated kinase into the substrate solution and gently mix • Deliver compounds in DMSO into the kinase reaction mixture • Deliver ^33P-ATP (specific activity 0.01 μCi/μl final) into the reaction mixture to initiate the reaction.
Activated in vitro via autophosphorylation. Final concentration in assay=4 nM. Substrate: pEY. Peptide sequence: Poly Glu-Tyr, 4:1 ratio. Final concentration in assay=0.2 mg·mL. 2 mM MnCl2 is added as a cofactor to the reaction mixture
(§3) Compounds in accordance with the practice of the present invention were tested in kinase assays employing high throughput radiometric techniques and nanoliter volume technology (Reaction Biology Corporation, Malvern Pa.).

[3] = molecular target: T2, ErbB2/HER2 (Homo sapiens, UniProt P04626); assay: Radiometric kinase assay, ErbB2/HER2; format: biochemical; settings: read-out: potency (IC50) over Her-2 assay
T2 construct: Recombinant catalytic domain, amino acids 679-1255, GST tagged, purified from insect cells; GST; host or cells: insect cells
T2 sequence (P04626 679-1255): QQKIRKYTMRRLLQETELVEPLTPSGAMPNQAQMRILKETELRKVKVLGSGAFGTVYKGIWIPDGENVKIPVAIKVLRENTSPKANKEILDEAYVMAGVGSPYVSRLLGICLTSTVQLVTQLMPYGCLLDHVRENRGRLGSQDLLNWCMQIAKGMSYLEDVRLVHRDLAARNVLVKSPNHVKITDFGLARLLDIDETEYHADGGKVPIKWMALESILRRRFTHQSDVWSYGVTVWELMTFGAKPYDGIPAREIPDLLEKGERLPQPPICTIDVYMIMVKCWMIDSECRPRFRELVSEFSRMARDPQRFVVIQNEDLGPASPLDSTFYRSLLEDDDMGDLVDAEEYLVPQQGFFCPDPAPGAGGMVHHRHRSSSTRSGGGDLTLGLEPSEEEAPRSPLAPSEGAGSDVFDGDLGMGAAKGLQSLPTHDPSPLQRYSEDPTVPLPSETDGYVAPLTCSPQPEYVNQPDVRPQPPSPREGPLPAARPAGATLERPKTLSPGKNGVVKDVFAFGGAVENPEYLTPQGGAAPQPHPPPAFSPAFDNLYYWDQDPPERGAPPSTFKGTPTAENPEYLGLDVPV
Description: as §1, §2
ErbB2/HER2—Genbank Accession # X03363. […] Final concentration in assay=50 nM. Substrate: pEY. Peptide sequence: Poly Glu-Tyr, 4:1 ratio. Final concentration in assay=0.2 mg·mL. 2 mM MnCl2 is added as a cofactor to the reaction mixture
as §3

[4] = tested on: A431; assay: Human tumor cell-line growth assay, A431; format: cell-based; settings: A-431, A431 (overexpressing EGFR), 10-dose, 3-fold dilution starting at 10 μM, read-out: IC50 growth inhibition A431
Description: (§4) Invention compounds were tested in human tumor cell-line growth assays.

[5] = tested on: NCI-H1975; assay: Human tumor cell-line growth assay, NCI-H1975; format: cell-based; settings: NCI-H1975 (EGFR mutant L858R/T790M), 10-dose, 3-fold dilution starting at 10 μM, read-out: IC50 growth inhibition NCI-H1975
Description: as §4

[6] = tested on: NCI-H1650; assay: Human tumor cell-line growth assay, NCI-H1650; format: cell-based; settings: NCI-H1650 (EGFR mutant E746-A750), 10-dose, 3-fold dilution starting at 10 μM, read-out: IC50 growth inhibition NCI-H1650
Description: as §4

[7] = tested on: BT-474; assay: Human tumor cell-line growth assay, BT-474; format: cell-based; settings: BT-474 (overexpressing ErbB2), 10-dose, 3-fold dilution starting at 10 μM, read-out: IC50 growth inhibition BT-474
Description: as §4

[8] = tested on: SKBR3; assay: Human tumor cell-line growth assay, SKBR3; format: cell-based; settings: SK-BR-3, SKBR3 (overexpressing EGFR and ErbB2), 10-dose, 3-fold dilution starting at 10 μM, read-out: IC50 growth inhibition SKBR3
Description: as §4

[9] = tested on: A549; assay: Human tumor cell-line growth assay, A549; format: cell-based; settings: 10-dose, 3-fold dilution starting at 10 μM, read-out: IC50 growth inhibition A549
Description: as §4

half-life [1] [h]	IC50 [2] [nM]	IC50 [3] [nM]	clearance [1] [mL/min/kg]	IC50 [4] [nM]	IC50 [5] [nM]	IC50 [6] [nM]	IC50 [7] [nM]	IC50 [8] [nM]	IC50 [9] [nM]	SMILES
6.59										[2H]C([2H])([2H])N(C/C=C/C(=O)Nc1cc2c(Nc3ccc(OCc4ccccn4)c(Cl)c3)c(C#N)cnc2cc1OCC)C([2H])([2H])[2H] [Compound A, (E)-N-{4-[3-chloro-4-(2-pyridinylmethoxy)aniline]-3-cyano-7-ethoxy-6-quinolinyl}-4-(dimethyl-d6-amino)-2-butenamide]
8.76	< 1000	< 1000	47.1							[2H]C([2H])([2H])N(C/C=C/C(=O)Nc1cc2c(Nc3cccc(C#C)c3)c(C#N)cnc2cc1OCC)C([2H])([2H])[2H] [Compound B, (E)-N-(3-cyano-7-ethoxy-4-(3-ethynylphenylamino)quinolin-6-yl)-4-(dimethyl-d6-amino)but-2-enamide]
5.37	< 1000	< 1000	59.7	< 1000	< 10000	< 10000	< 1000	< 1000	< 1000	C#Cc1cccc(Nc2c(C#N)cnc3cc(OCC)c(NC(=O)/C=C/CN(C)C)cc23)c1 [Compound C, (E)-N-(3-cyano-7-ethoxy-4-(3-ethynylphenylamino)quinolin-6-yl)-4-(dimethylamino)but-2-enamide]
	< 1000	< 1000								[2H]C([2H])([2H])N(C/C=C/C(=O)Nc1cc2c(Nc3ccc(OCc4ccccn4)c(Cl)c3)c(C#N)cnc2cc1OCCOC)C([2H])([2H])[2H] [Example 7]
5.28										CCOc1cc2ncc(C#N)c(Nc3ccc(OCc4ccccn4)c(Cl)c3)c2cc1NC(=O)/C=C/CN(C)C [HKI272, reference compound]
